As usually defined, the CC50 is the concentration that lowers cell viability or growth by half.

One data set has as its system L. major promastigotes. Description: Promastigote growth inhibition assay (MTT), L. major. It counts as cell-based, Leishmania major. The note with it: for anti-leishmanial activity against promastigotes of L. major (in words): in vitro; for IC50: Leishmania major, read-out: L. major IC50 (μM± SD). As to the method: (§1) L. major and L. tropica (Clinical isolates) promastigotes were grown at […] in RPMI-1640 (Sigma) medium containing 10% of heat-inactivated (56°C for 30 min) fetal bovine serum. Cell viability was initially evaluated by wet mount method by observing the live cells under compound microscope. Parasite growth was assessed by counting live / motile promastigotes in a Neubauer chamber. Viable cell count was used for the further experimentations (treatments).
(§2) The promastigotes in their log phase were used in 96-well plates. 1 × 10^6 wild-type and resistant promastigotes were dispensed in 96 96-well plates, and incubated with tested compounds at a range concentration of 200–10 μM at 27°C for 72 h. After incubation of 72 h, MTT dye (3-(4,5-dimethylthiazol-2-yl)-2,5-diphenyl-2H-tetrazolium bromide) was added and further incubate it for 3–4 h. Amphotericin B, pantamidine and miltefosine were used as the positive control, untreated promastigotes were used as negative control moreover DMSO control was also added in the study as a stock solution of the compounds that were prepared in DMSO. All the experiments were performed in triplicates. After completion of the experiment the absorbance by Multiskan ascent plate reader at 452 nm and percent inhibition was calculated by the following formula.
(§3) Cytotoxic concentration (%) = [100- (Absorbance of test)/ (Absorbance of solvent control) ×100] %.

The nature of data set [1]: Cytotoxicity (MTT) against 3T3 cell line. The format is cell-based, mouse. To be noted: pure compounds; mouse fibroblast, 48 h; read-out: 3T3 Cell line CC50 (μM± SD). As to the method:
(§4) The cytotoxicity of the test compounds against normal cell lines was evaluated through MTT (3-[4, 5-dimethylthiazole-2-yl]-2, 5-diphenyl-tetrazolium bromide] colorimetric assay in 96-well flat-bottomed microplates. The 3T3 (mouse fibroblast) and BJ (human fibroblast) were cultured Dulbecco’s Modified Eagle Medium, supplemented with 5% of fetal bovine serum (FBS), 100 IU/mL of penicillin and 100 μg/mL of streptomycin in 75 cm2 flasks, and then incubated in 5% CO2 incubator at 37°C. The growing cells were counted by using a haemocytometer, and diluted with the particular medium. The 5x10^4 cells/mL of the cell culture was prepared, and a sample […] was introduced into each well. The medium was removed after overnight incubation, and 200 μL of fresh medium was added with different concentrations of compounds (1–30 μM). After 48 hours, 200 μL MTT (0.5 mg/mL) was added, and the incubation was further continued for 4 hrs. After that time, 100 μL of DMSO was added to each well. The absorbance was measured using a micro plate reader (Spectra Max Plus, Molecular Devices, CA, USA) at 570 nm for the extent of MTT reduction to formazan within the cells. The cytotoxicity was recorded as CC50 against cells by using Soft- Max Pro software. Doxorubicin and cycloheximide were used as positive control. The experiments were run in triplicate.

For data set [2], the system named is 3T3 (mouse fibroblast) cells. As to the kind of experiment: Cytotoxicity (MTT) against 3T3 cell line. The format is cell-based. The note with it: for IC50: Mus musculus, Fibroblast, cytotoxicity of compounds 1-9, read-out: 3T3 (mouse fibroblast) IC50 (μM ± SD); for L. tropica SI (CC50/ IC50): CC50 3T3 cell line / IC50 L. tropica. As to the method:
as §4

Data set [3] is described as follows: Cytotoxicity (MTT) against BJ cell line. The format is cell-based, human. The note with it: pure compounds; human fibroblast, 48 h; read-out: BJ cell line CC50 (μM± SD). Here is the method:
as §4, with “The medium was removed after overnight incubation, and 200 μL of fresh medium was added with different concentrations of compounds (1–30 μM).” left out

The test system of data set [4] is BJ (human fibroblast) cells. As to the kind of experiment: Cytotoxicity (MTT) against BJ cell line. To be noted: for IC50: Homo sapiens, Fibroblast, cytotoxicity of compounds 1-9, read-out: BJ (human fibroblast) IC50 (μM± SD). The format is cell-based. Here is the method: as §4, with “The medium was removed after overnight incubation, and 200 μL of fresh medium was added with different concentrations of compounds (1–30 μM).” left out

In a further data set the test system is L. tropica promastigotes. As to the kind of experiment: Promastigote growth inhibition assay (MTT), L. tropica clinical isolates. The format is cell-based, Leishmania tropica. To be noted: for IC50: Leishmania tropica, read-out: L. tropica IC50 (μM± SD). As to the method: as §1, §2, §3
For data set [5], the system named is MIL-resistant L. tropica promastigotes. As to the kind of experiment: Growth inhibition assay (MTT) against MIL-resistant line. It counts as cell-based, Leishmania tropica. To be noted: 72 h; for MIL Resistant L. tropica IC50 (μM± SD): miltefosine-unresponsive strain, promastigotes. Here is the method:
as §2, §3
Promastigote cultures tL. tropica (Clinical isolates) were maintained at 26°C in RPMI-1640 medium containing 15% FBS and 1% penicillin–streptomycin mixture.
Generation of miltefosine-unresponsive strain was carried under high MIL pressure by in vitro passage with a stepwise increase in the MIL concentration. At each step, parasites were cultured and passaged every 3–4 days at an initial concentration of 5x10^5 promastigotes/mL in order to achieve -stable growth as compared to the wildtype isolate. Growth rates were measured for resistant populations and compared with the WT strain. Parasites were counted at an initial concentration of 5x10^5 parasites/mL and growth was measured daily using a Neubauer chamber until the population reached the stationary phase. Furthermore, the fluorescence microscopic investigations via DAPI stain were also carried out to supplement the study.

The subject of data set [6] is 3T3 (mouse fibroblast) cells. As to the kind of experiment: Cytotoxicity (MTT) against 3T3 cell line. It counts as cell-based. The note with it: cytotoxicity of extracts and fractions, read-out: 3T3 (mouse fibroblast) IC50 (μg/ml ± SD).
Data set [7] deals with BJ (human fibroblast) cells. Description: Cytotoxicity (MTT) against BJ cell line. To be noted: cytotoxicity of extracts and fractions, read-out: BJ (human fibroblast) IC50 (μg/ml ± SD). The format is cell-based.
The mark [8] stands for this setting: pure compounds, standard drugs, promastigotes, 72 h.
Where [9] appears, read: pure compounds, standard drugs, promastigotes, clinical isolate, 72 h.
Where [10] appears, read: CC50 3T3 mouse fibroblast cell line / IC50 L. major.
The mark [11] stands for this setting: CC50 BJ fibroblast cell line / IC50 L. major.
Setting [12] is: CC50 3T3 mouse fibroblast cell line / IC50 L. tropica.
Where [13] appears, read: CC50 BJ fibroblast cell line / IC50 L. tropica.

Each structure is given as a SMILES string. In brackets after ≈: the same amount, converted by molar mass. Read-outs that look alike come from different tables or passages of the source.

With `CCOC12CC=CC(=O)C1(C)C1CCC3(O)C(=O)OC4(C)C5CC6(C)C(COC7(OC34C6C7=O)C1CC2O)C(=O)O5` (stereo not drawn) [Compound 4, 5α-ethoxy-6ß-hydroxy-5,6-dihydrophysalin B], the “anti-leishmanial activity against promastigotes of L. major (in words)” value in the data set with L. major promastigotes is recorded as “no significant activity”. The “L. major IC50 (μM± SD)” value in the data set on L. major promastigotes (setting [8]) is recorded as “Inactive”. The cytotoxic concentration (CC50) in [1] is 19.6 ± 0.8 µM; in [3], 14.2 ± 0.8 µM. The IC50 is 19.6 ± 0.8 µM in data set [2]; under 50 µM in data set [4]; 74.7 ± 0.81 µM in data set [5] (Leishmania tropica, read-out: MIL Resistant L. tropica IC50 (μM± SD)). Further, the “L. tropica IC50 (μM± SD)” value in the data set with L. tropica promastigotes (setting [9]) is on record as “Inactive”.

`CC12CC3OC(=O)C1COC14OC5(C2C1=O)C(O)(CCC1C4CC(O)C2(Cl)CC=CC(=O)C12C)C(=O)OC35C` (stereo not shown) [Compound 5, Physalin H]: the figures for the “L. major SI (CC50/ IC50)” value in the data set on L. major promastigotes (setting [10]) and in the data set with L. major promastigotes (setting [11]) were 0.119 and 3.11, respectively. The IC50 in the data set on L. major promastigotes (setting [8]) turned out to be 3.34 ± 0.64 µM; in data set [2] it was 0.4 ± 0.07 µM; in data set [4], 14.2 ± 0.8 µM; in the data set with L. tropica promastigotes (setting [9]), 9.59 ± 0.27 µM. Also, the 50% cytotoxic concentration (CC50) in data set [1] was 0.4 ± 0.07 µM; in data set [3] it was 10.4 ± 1 µM. For the same compound, the “L. tropica SI (CC50/ IC50)” value in data set [2] is reported as 0.041; in data set [4] (CC50 BJ cell line / IC50 L. tropica), 1.08; in the data set with L. tropica promastigotes (setting [12]), 0.041; in the data set on L. tropica promastigotes (setting [13]), 1.08. In data set [5], the “MIL Resistant L. tropica IC50 (μM± SD)” value was “inactive”.

Regarding `C=C1C(=O)OC2CC1(C)C1C(=O)C3(O)OC14C(O)(CCC1C3CC3OC35CC=CC(=O)C15C)C(=O)OC24C` (stereo not drawn) [Compound 6, 5β, 6β-epoxyphysalin C], the “L. major SI (CC50/ IC50)” value with L. major promastigotes (setting [10]) worked out at 0.007; with L. major promastigotes (setting [11]) it was 1.19; in [4] (CC50 BJ cell line / IC50 L. major) it was 1.19. In addition, the IC50 was determined as 84.8 ± 1.56 µM in the data set with L. major promastigotes (setting [8]), 0.6 ± 0.04 µM in data set [2], 10.4 ± 1 µM in data set [4] and 23.8 ± 1.1 µM with L. tropica promastigotes (setting [9]). Moreover, in the data set with L. major promastigotes, the “anti-leishmanial activity against promastigotes of L. major (in words)” value is “no significant activity”. The CC50 is 0.6 ± 0.04 µM in data set [1] and over 100 µM in [3]. For the same compound, the “L. tropica SI (CC50/ IC50)” value is given as 0.025 in [2], 0.025 in the data set on L. tropica promastigotes (setting [12]) and 4.20 in the data set on L. tropica promastigotes (setting [13]). In addition, the “MIL Resistant L. tropica IC50 (μM± SD)” value in data set [5] was “inactive”.

As for `COc1cccc2c1C(=O)c1c(O)c3c(c(O)c1C2=O)C[C@@](O)(C(=O)CO)C[C@@H]3O[C@H]1C[C@H](N)[C@H](O)[C@H](C)O1` [Doxorubicin], the IC50 in [6] and in data set [7] was 0.1 ± 0.02 µg/mL (≈ 0.184 µM) each time.

These data come from paper PMC9704608, “Anti-leishmanial physalins—Phytochemical investigation, in vitro evaluation against clinical and MIL-resistant L. tropica strains and in silico studies” (PLOS ONE, 2022).
